From patent US20250177329A1, “GPR120 AGONISTS FOR THE TREATMENT OF INFLAMMATORY BOWEL DISEASE” (Dompe' Farmaceutici SPA, priority 2022, published 2025)

Key:
[1] = target: T1, GPR120 (Mus musculus, UniProt Q7TMA4); experiment: Co-immunoprecipitation of β-arrestin 2 with GPR120 in colon lysates of DSS mice; type: in vivo
T1 construct: Colon lysates (˜900 μg proteins) from 6 mice of each experimental group were pooled; from tissue; host or cells: mouse colon (DSS colitis model)
T1 sequence (Q7TMA4 1-361): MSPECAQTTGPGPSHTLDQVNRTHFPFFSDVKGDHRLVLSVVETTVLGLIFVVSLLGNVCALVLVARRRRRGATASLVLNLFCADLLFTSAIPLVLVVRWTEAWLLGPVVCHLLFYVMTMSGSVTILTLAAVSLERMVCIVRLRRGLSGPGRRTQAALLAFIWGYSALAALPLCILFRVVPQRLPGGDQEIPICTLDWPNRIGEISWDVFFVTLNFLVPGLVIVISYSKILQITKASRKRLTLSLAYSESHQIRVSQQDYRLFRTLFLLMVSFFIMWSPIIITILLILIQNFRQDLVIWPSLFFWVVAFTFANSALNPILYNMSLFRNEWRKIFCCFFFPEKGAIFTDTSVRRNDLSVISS
Method: (§1) The efficiency of DFL in activating the GPR120 and/or GPR40 receptors was tested.
(§2) Agonist-induced GPR120 can engage multiple signalling pathways to regulate distinct physiological outcomes. After ligand binding, B-arrestins, such as B-arrestin 2 can associate with the cytoplasmic domains of GPR120 and couple the receptor to specific downstream signaling pathways (FIG. 9). For this reason, we verified the agonist efficiency in activating GPR120 and GPR40 by immunoprecipitation. Colon lysates (˜900 μg proteins) from 6 mice of each experimental group were pooled, precleared with protein A/G plus-agarose (Santa Cruz) and then incubated with the antibody used for immunoprecipitation (anti-GPR120 or anti-GPR40, Abcam) at 4° C. for 16 h, followed by incubation with protein A/G plus-agarose for 5 h. The agarose beads were then collected by centrifugation, washed four times with lysis buffer, and heated to 95° C. for 5 min after adding Laemmli buffer. The resulting immunoprecipitates were separated by SDS-PAGE and probed with the anti-β-arrestin 2 antibody (Santa Cruz).
(§3) Upon western blotting, a densitometric analysis of the blots was performed using Image J. FIGS. 10 and 11 show the ratio between co-immunoprecipitated β-arrestin 2 and GPR120 (FIG. 10) or GPR40 levels (FIG. 11) and the results of the blotting.

[2] = target: T2, GPR40 (Mus musculus, UniProt Q76JU9); experiment: Co-immunoprecipitation of β-arrestin 2 with GPR40 in colon lysates of DSS mice; type: in vivo; details: pooled colon lysates, day 39; compared to DSS or DSS+vehicle
T2 construct: Colon lysates (˜900 μg proteins) from 6 mice of each experimental group were pooled; from tissue; host or cells: mouse colon (DSS colitis model)
T2 sequence (Q76JU9 whole entry): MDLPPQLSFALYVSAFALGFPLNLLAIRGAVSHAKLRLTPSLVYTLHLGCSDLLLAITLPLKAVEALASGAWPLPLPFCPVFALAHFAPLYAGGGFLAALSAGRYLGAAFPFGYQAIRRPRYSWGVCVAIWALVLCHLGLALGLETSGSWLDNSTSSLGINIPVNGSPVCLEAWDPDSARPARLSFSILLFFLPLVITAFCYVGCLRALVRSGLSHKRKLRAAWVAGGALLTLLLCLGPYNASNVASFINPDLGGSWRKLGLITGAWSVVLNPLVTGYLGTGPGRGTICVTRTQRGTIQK
Method: as §1, §2, §3

[3] = Plasma pharmacokinetics after single oral administration to mice; type: in vivo; details: male, CD1, mouse, single oral dose (Dose_PO: 10.0-90.0 mg/kg)
Text: The purpose of this study was to evaluate plasma and tissue exposure of the following compounds after a single oral administration to mice: • 7-(3-(N-(4-fluoro-2,6-dimethylphenyl)sulfamoyl)phenyl)heptanoic acid (indicated below as DFL23806), • 7-(3-(N-(4-chloro-2,6-dimethylphenyl)sulfamoyl)phenyl)heptanoic acid (indicated below as DFL23914) • 7-(3-(N-(2,6-dimethyl-4-(trifluoromethyl)phenyl)sulfamoyl)phenyl)heptanoic acid (indicated below as DFL23922) • 7-(3-(N-(6-fluoro-4-methyl-[1,1′-biphenyl]-3-yl)sulfamoyl)phenyl)heptanoic acid (indicated below as DFL23916) • 7-(3-(N-(5-fluoro-3-methyl-[1,1′-biphenyl]-2-yl)sulfamoyl)phenyl)heptanoic acid (indicated below as DFL23917) • 7-(3-{[4-fluoro-2-methyl-5-(thiophen-2-yl)phenyl]sulfamoyl}phenyl)heptanoic acid (indicated below as DFL24102) […]
A retro-orbital, composite blood sampling at pre-dose or after dosing at 30 min, 1, 2, 6, 8 and 24 hours (three mice/time point) was carried out for the plasma pharmacokinetic assessment. Blood samples were collected in heparinized collection tubes. Samples were taken immediately onto ice and kept cool until centrifugation (10000 g for 3 minutes at about +4° C.). About 50 μL of plasma were stored in a freezer at −80° C. pending analysis.
After samples collection, bioanalysis for concentrations of the test compounds were done using HPLC-MS/MS methods and pharmacokinetic analysis of the compounds in plasma and tissues was performed according to standard non-compartmental approach using Watson system (v 7.6, Thermo Fisher Scientific Waltham, MA, USA) on mean concentration data.

[4] = Biodistribution in colon after single oral dose; type: in vivo; details: PO 90.0 mg/kg, male Swiss albino mice
Method: The biodistribution of DFL23806 in the proximal and distal colon was evaluated in male Swiss albino mice following single dose oral administration of DFL23806 90 mg/kg.
Colon concentration (ng/g) of DFL23806 after PO (90.0 mg/kg) dose administration to male Swiss albino mice.
Colon/Plasma ratio of DFL23806 after PO (90.0 mg/kg) dose administration to male Swiss albino mice.

[5] = target: T3, human GPR120 (Homo sapiens, UniProt Q5NUL3); experiment: Internalization of GPR120 (Enzyme Fragment Complementation, DiscoverX); type: cell-based; details: at 100 μM
T3 sequence (Q5NUL3 1-361): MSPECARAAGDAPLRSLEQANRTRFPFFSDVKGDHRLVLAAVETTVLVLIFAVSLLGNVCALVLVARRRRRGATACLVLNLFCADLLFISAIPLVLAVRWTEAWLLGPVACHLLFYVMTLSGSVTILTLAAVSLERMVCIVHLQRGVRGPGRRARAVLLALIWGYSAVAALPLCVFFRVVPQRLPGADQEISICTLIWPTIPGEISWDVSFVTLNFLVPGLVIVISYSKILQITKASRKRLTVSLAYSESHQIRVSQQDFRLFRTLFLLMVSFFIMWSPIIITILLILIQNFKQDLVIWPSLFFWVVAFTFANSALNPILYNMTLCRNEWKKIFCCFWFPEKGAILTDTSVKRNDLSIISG

Cc1cc(F)cc(C)c1NS(=O)(=O)c1cccc(CCCCCCC(=O)O)c1 [DFL23806, 7-(3-(N-(4-fluoro-2,6-dimethylphenyl)sulfamoyl)phenyl)heptanoic acid]
selectivity GPR120 versus GPR40 ([1]; from β-arrestin 2 co-immunoprecipitation with GPR120 and GPR40): GPR120 selective agonist
association between GPR120 and β-arrestin 2 (ratio co-immunoprecipitated β-arrestin 2 / GPR120) ([1]; pooled colon lysates, day 39, DFL 90 mg/kg, compared to control groups or DSS+5-ASA 60 mg/Kg): higher compared to control groups
GPR40 and β-arrestin 2 association (ratio co-immunoprecipitated β-arrestin 2 / GPR40) [2]: no increase
AUC(0-inf) [3]: 405 ng·h/mL
AUC(0-t) [3]: 354 ng·h/mL
Cmax [3]: 106 ng/mL
Tmax [3]: 0.5 h
half-life [3]: 5.8 h
Colon/Plasma ratio, Mean ([4]; 4.00 h, 90 mg/kg): 64.20
Kp at 1 h ([4]; mouse, colon/plasma, 1.00 h, read-out: Colon/Plasma ratio, Mean): 1.63
Kp at 4 h ([4]; mouse, colon/plasma, 4.00 h, read-out: Colon/Plasma ratio, Mean): 64.2
concentration at 1 h ([4]; mouse, colon, 1.00 h): 68.3 ng/g
concentration at 4 h ([4]; mouse, colon, 4.00 h): 3570 ng/g
efficacy of internalization of the human GPR120 receptor [5]: 59.1%
